# Measurements taken from patent US20250262192A1, “PROGNOSTIC PATHWAYS FOR HIGH RISK SEPSIS PATIENTS” (KONINKLIJKE PHILIPS N.V., priority 2021, published 2025).
# “And” between values parts separate entries of the source, which are not always exact repeats. Identical values can stand only once. “Also recorded” adds a separate entry of the source.
# How the values were obtained:
# TGFbeta pathway [1] = experiment: PBMCs of sepsis patients treated in vitro 24 hours with inhibitors, pathway activity score; format: cell-based, human; parameters: scale not given here
# Experimental: (§1) PBMC samples from healthy volunteers and sepsis patients were obtained via Tissue solutions. Briefly, cryopreserved PBMCs were first washed with washing buffer (PBS/1% BSA/2 mM EDTA), centrifuged and pellet resuspended in culture medium (RPM11640 without phenol red+8.5% charcoal stripped FBS+1% Glx+1% p/s). 0.5·10^5-1·10^6 cells were seeded per well in 24 wells plate and rested for 1 hour before treatment experiment. 10 PBMC samples from healthy donors were used to; (1) measure the baseline pathway levels, (2) activate with LPS
# (§2) Sepsis treatment model: PBMC derived from sepsis patients (n=20) were treated 24 hours with compounds, DMSO or combination of compounds. (PBMC from healthy and sepsis patients are originating from the same hospital to minimize bias in sample prep). After stimulation cells were harvested and RNA was extracted using the RNeasy mini kit (Qiagen, 74104). qPCR was performed using the Philips Research OncoSignal platform.
# (§3) In total 18 PBMCs sepsis samples were treated for 24 hours with selected inhibitors (and combinations), 6 patient samples per experiment.
# [2] = tested on: TGFbeta signaling pathway; experiment: THP-1 sepsis treatment model, qPCR-based STP activity score; format: cell-based; conditions: for Effect on TGFbeta PAS in LPS-stimulated THP-1 monocytes: THP-1 monocyte sepsis treatment model (Table 11); for Average TGFb STP activity score: 24 hours
# Experimental: (§4) In the treatment model the pathway inhibitor and LPS were added at the same time and the THP-1 cells were incubated for 24 hours prior to isolating RNA and determining pathway activities.
# (§5) For the first application, THP-1 cells were pre-incubated for 24 hours with the drug of choice, and subsequently LPS was added for 24 hours. For the treatment application, the drug and LPS were added simultaneously to the cells for 24 hours. Importantly: Some drugs needs processing in the body to become effective, this is the case for some of the androgen receptor (AR) pathway inhibitors, such as bicalutamide. In this case we have also tested the active variant of the drug (in the case of bicalutamide: (R-)bicalutamide).
# (§6) LPS is considered the main mediator of the sepsis symptoms. An in vitro experiment was designed where monocytes were stimulated with LPS and subsequently treated with a variety of inhibitors. Monocytes were chosen as they have been described to play a major role in sepsis, see for example Sukhacheva, [34], Clinical Laboratory Int. 26 Aug.
# (§7) Sepsis treatment model: For the treatment application, the drug and LPS were added simultaneously to the cells for 24 hours. Compounds and concentrations are described in Table 11 and Table 12 for healthy volunteer PBMCs.
# (§8) After stimulation cells were harvested and RNA was extracted using the RNeasy mini kit (Qiagen, 74104). qPCR-based STP activity scores were calculated using the Philips Research OncoSignal platform (www.philips.com/oncosignal), as described herein.
# (§9) Two concentrations of LPS 0.5 and 5 ng/ml were used in the experiments, furthermore for the THP-1 cell line an higher passage number (px-53-55) and a lower passage number (px-13-15) were used (Table 11). the THP-1 cell line with the lower passage was more reactive towards LPS activation compared to the higher passage number (data not shown).
# AR signaling pathway = experiment: as above; format: cell-based; conditions: for Effect on AR PAS in LPS-stimulated THP-1 monocytes: THP-1 monocyte sepsis treatment model (Table 11); for Average AR STP activity score: 24 hours
# Experimental: as §4, §5, §6, §7, §8, §9
# AR pathway [3] = experiment: PBMCs of sepsis patients treated in vitro 24 hours with inhibitors, pathway activity score; format: cell-based, human; parameters: AR Pathway activity scores of sepsis PBMC patients: scale not given here
# Experimental: as §1, §2, §3
# TGFbeta pathway [4] = experiment: PBMCs of healthy volunteers stimulated with LPS with or without drugs, pathway activity score; format: cell-based, human; conditions: for TGFbeta PAS: PBMCs of individual healthy volunteers; for Healthy volunteers showing TGFbeta PAS decrease: experiment 2, PBMCs, LPS 0.5 ng/ml + drug, Etanercept: not significantly
# Experimental: as §7, §1
# (§10) PBMCs of healthy volunteers were stimulated with 5 ng/ml LPS for 24 hours in combination with (R)-Bicalutamide and (R)-Bicalutamide+Vactosertib (experiment 1). In experiment 2, (R)-Bicalutamide and etanercept were tested with 0.5 ng/ml LPS (Table 12A for exp 1 and Table 12B for exp 2).
# AR pathway [5] = experiment: as above; format: cell-based, human; conditions: for AR PAS: PBMCs of individual healthy volunteers; for Healthy volunteers showing AR PAS decrease: experiment 2, PBMCs, LPS 0.5 ng/ml + drug, Etanercept: not significantly
# Experimental: as §7, §1, §10
# [6] = tested on: TGFbeta cellular signaling pathway; experiment: THP-1 sepsis prevention model, qPCR-based STP activity score; format: cell-based
# [7] = tested on: AR cellular signaling pathway; experiment: as above; format: cell-based
# [8] = EXP 1, individual patient samples, Vactosertib 1 uM, Vactosertib 1 uM + R-bicalutamide 25 uM, Etanercept 10 ug/ml, R-bicalutamide 25 uM
# [9] = THP-1 px 13-15, LPS 0.5 ng/ml alone or with compound, (R)-Bicalutamide 25 uM, N-desmethyl Enzalutamide 2 uM, N-Desmethyl-Apalutamide 3 uM
# [10] = THP-1 px 53-55, LPS 0.5 ng/ml alone or with compound, (R)-Bicalutamide 25 uM, Ketodarolutamide 10 uM, D4-abiraterone 10 uM
# [11] = experiment 1, PBMCs, LPS 5 ng/ml + drug
# [12] = experiment 1, LPS 5 ng/ml 24 hours alone, + (R)-Bicalutamide 25 uM, or + (R)-Bicalutamide 25 uM + Vactosertib 1 uM
# [13] = experiment 2, LPS 0.5 ng/ml alone, + Etanercept 10 ug/ml, or + (R)-Bicalutamide 25 uM
# [14] = EXP 2, individual patient samples, Resatorvid 10 uM, D4-abiraterone 10 uM, A-485 100 nM, Galunisertib 10 uM
# [15] = THP-1 px 13-15, LPS 5 ng/ml alone or with Resatorvid 10 uM
# [16] = 24 hrs Vactosertib or DMSO, then 24 hrs LPS
# [17] = 24 hrs Vactosertib, then 24 hrs PBS
# [18] = THP-1 px 13-15, LPS 0.5 ng/ml alone or with compound, Vactosertib 1 uM, Etanercept 1 ug/ml, R-bicalutamide 25 uM + Etanercept 0.1 ug/ml, R-bicalutamide 25 uM + Filgotinib 10 uM
# [19] = THP-1 px 13-15, LPS 0.5 ng/ml alone or with Etanercept 10 ug/ml
Compound,TGFbeta Pathway activity scores of sepsis PBMC patients (TGFbeta pathway [1]; [8]),Effect on TGFbeta PAS in LPS-stimulated THP-1 monocytes [2],"Average TGFb STP activity score [2, 9] [normalized scores]","Average TGFb STP activity score [2, 10] [normalized scores]",Effect on AR PAS in LPS-stimulated THP-1 monocytes (AR signaling pathway),Average AR STP activity score (AR signaling pathway; [9]) [normalized scores],Average AR STP activity score (AR signaling pathway; [10]) [normalized scores],AR Pathway activity scores of sepsis PBMC patients (AR pathway [3]; [8]),AR Pathway activity scores of sepsis PBMC patients (AR pathway [3]; [14]),also measured
C[C@](O)(CS(=O)(=O)c1ccc(F)cc1)C(=O)Nc1ccc(C#N)c(C(F)(F)F)c1 [(R)-Bicalutamide],31 and 32,could lower,14.00,11.67,could reduce,6.67,1.67,21,–,Healthy volunteers showing TGFbeta decrease (TGFbeta pathway [4]; [11]): 3 out of 6; TGFbeta PAS (TGFbeta pathway [4]; [12]): 29 and 32 and 35 and 31 and 27 and 40; Healthy volunteers showing TGFbeta PAS decrease (TGFbeta pathway [4]): 3 out of 4; TGFbeta PAS (TGFbeta pathway [4]; [13]): 31 and 35 and 33 and 32; Healthy volunteers showing AR decrease (AR pathway [5]; [11]): 3 out of 6; AR PAS (AR pathway [5]; [12]): 29 and 26 (2×) and 30 and 25 and 21; Healthy volunteers showing AR PAS decrease (AR pathway [5]): 3 out of 4; AR PAS (AR pathway [5]; [13]): 26 and 28 and 30 and 24
C[C@]12CCC(=O)C=C1CC[C@@H]1[C@@H]2CC[C@]2(C)C(c3cccnc3)=CC[C@@H]12 [D4-abiraterone],–,could lower,–,11.67,could reduce,–,2.67,–,24 (3×) and 33,TGFbeta Pathway activity scores of sepsis PBMC patients (TGFbeta pathway [1]; [14]): 32 and 41 and 36 and 40
O=C(Nc1nc2cccc(-c3ccc(CN4CCS(=O)(=O)CC4)cc3)n2n1)C1CC1 [Filgotinib],–,could lower,–,–,–,–,–,–,–,–
Cc1cccc(-c2nn3c(c2-c2ccnc4ccc(C(N)=O)cc24)CCC3)n1 [Galunisertib],–,–,–,–,–,–,–,–,23,–
CC(=O)c1cc(C(=O)N[C@@H](C)Cn2ccc(-c3ccc(C#N)c(Cl)c3)n2)[nH]n1 [Ketodarolutamide],–,–,–,12.00,could reduce,–,2.33,–,–,–
N#Cc1ncc(N2C(=O)C3(CCC3)N(c3ccc(C(N)=O)c(F)c3)C2=S)cc1C(F)(F)F [N-Desmethyl-Apalutamide],–,–,13.33,–,could reduce,7.33,–,–,–,–
CC1(C)C(=O)N(c2ccc(C#N)c(C(F)(F)F)c2)C(=S)N1c1ccc(C(N)=O)c(F)c1 [N-desmethyl Enzalutamide],–,–,13.33,–,could reduce,6.67,–,–,–,–
CCOC(=O)C1=CCCC[C@H]1S(=O)(=O)Nc1ccc(F)cc1Cl [Resatorvid],–,could lower; also recorded: could be lowered,–,–,could reduce; also recorded: could be lowered,–,–,–,24 and 31,"TGFbeta Pathway activity scores of sepsis PBMC patients (TGFbeta pathway [1]; [14]): 31 and 37 and 35 and 34; Average TGFb STP activity score [2, 15]: 8.00 normalized scores; Average AR STP activity score (AR signaling pathway; [15]): 3.67 normalized scores"
Cc1cccc(-c2[nH]c(CNc3ccccc3F)nc2-c2ccc3ncnn3c2)n1 [Vactosertib],31,–,–,–,–,–,–,21 and 22,–,"Average PAS TGFbeta [6, 16]: 9.3 normalized scores; Average PAS TGFbeta [6, 17]: 1.7 normalized scores; Average TGFb STP activity score [2, 18]: 12.00 normalized scores; Average AR STP activity score (AR signaling pathway; [18]): 8.67 normalized scores; Patients showing reduction in the AR pathway (not significant) (AR pathway [3]; sepsis patient PBMCs, Etanercept 10 ug/ml in combination): 2/3; Average PAS AR [7, 16]: 17.1 normalized scores; Average PAS AR [7, 17]: 3.8 normalized scores; Effect on the AR signaling pathway ([7]; Vactosertib pretreatment followed by LPS): No effect"
Etanercept,42 and 30 and 31,could lower; also recorded: could be lowered,–,–,could reduce; also recorded: could be lowered,–,–,28 and 20,–,"Average TGFb STP activity score [2, 19]: 11.33 normalized scores; Average TGFb STP activity score [2, 18]: 9.67 normalized scores and 11.67 normalized scores; Average AR STP activity score (AR signaling pathway; [19]): 6.33 normalized scores; Average AR STP activity score (AR signaling pathway; [18]): 5.00 normalized scores and 6.00 normalized scores; Healthy volunteers showing TGFbeta PAS decrease (TGFbeta pathway [4]): 3 out of 4; TGFbeta PAS (TGFbeta pathway [4]; [13]): 29 and 34 and 31 (2×); Healthy volunteers showing AR PAS decrease (AR pathway [5]): 2 out of 4; AR PAS (AR pathway [5]; [13]): 21 and 31 (2×) and 18"
